According to publication PMC8709211, “Improving Membrane Activity and Cargo Delivery Efficacy of a Cell-Penetrating Peptide by Loading with Carboranes” (Pharmaceutics, 2021):

Experiments:
[1] = Circular dichroism spectroscopy (alpha-helical content, R-value); type: physicochemical; settings: for % of alpha helix, 50% TFE / % of alpha helix, Phosphate Buffer: CD, calculated per ref 31; for % of alpha helix, 50% TFE: 20 µM peptide in 10 mM phosphate buffer (pH 7.0) with 50% TFE (v/v); for % of alpha helix, Phosphate Buffer / R-value, Phosphate Buffer: 20 µM peptide in 10 mM phosphate buffer (pH 7.0); for R-value, 50% TFE / R-value, Phosphate Buffer: ratio between the molar ellipticity values at 222 and 208 nm; for R-value, 50% TFE: 20 µM peptide in 10 mM phosphate buffer (pH 7.0) with 50% TFE
Method: Conjugates were dissolved in 10 mM phosphate buffer (pH 7.0), either alone or supplemented with 50% TFE (v/v), to a final concentration of 20 µM. CD spectra of all conjugates were recorded from 180–260 nm (0.5 nm intervals) on a J-715 spectropolarimeter (JASCO, Pfungstadt, Germany) in an N2 atmosphere.
To find out more, we performed CD spectroscopy for all peptides solved either in phosphate buffer or in phosphate buffer supplemented with trifluoroethanol (TFE), respectively. All conjugates and sC18 adopted an alpha-helix, when present in phosphate buffer with TFE (Figure S20). On the other hand, when CB-conjugates were solved in phosphate buffer only (Figure 1C), some of them directly formed distinct secondary structures. […] Taking this observation into account, we concluded that the number of CB moieties actually promoted the formation of alpha-helical structures. This effect might be further explained by the helical wheel projection of each conjugate showing that the hydrophobic face of the peptide was clearly enlarged when three or more CB units were attached (see Figure S21). […]

[2] = tested on: HeLa cells; experiment: Cellular uptake by flow cytometry; type: cell-based; settings: 1 µM CF-labeled peptide, serum-free medium, 37 °C; for Cellular uptake into HeLa cells, 30 min: triplicate, n = 3
Method: HeLa cells were seeded onto 24-well plates (Sarstedt, Nümbrecht, Germany, 100,000 cells per well, respectively). After reaching 80–90% confluency, medium was removed, and cells were incubated with 1 µM CF-labeled peptide solution in serum-free medium for either 30 min or 2 h at 37 °C. The peptide solution was removed, cells were washed twice with PBS, and trypsinized for 5 min. Detached cells were resuspended in full medium (phenol red free) and afterwards analyzed using a guava easycyte HT flow cytometer (Merck, Darmstadt, Germany).

[3] = tested on: human red blood cells; experiment: Hemolysis assay; type: cell-based; settings: human RBCs 5% (v/v in PBS), 37 °C, up to 25 µM peptide, absorption at 560 nm, normalized to Triton-x-100 control, triplicate, n = 2
Method: Human red blood cells were washed five times with PBS (4 °C, 3000× g, 5 min) and diluted to 5% (v/v in PBS). In total, 100 µL of this solution were transferred into a fresh 96-well plate. In total, 50 µL of peptide solution were added and gently resuspended. Red blood cells were incubated for either 1 or 24 h at 37 °C and 5% CO2, respectively. In total, 50 µL of 10% Triton-x-100 were added 10 min prior to the end of the incubation time and served as a positive control. After incubation, cells were centrifuged (r.t., 2500× g, 3 min). The supernatant was carefully transferred into a fresh 96-well plate and the absorption at 560 nm was measured on a Tecan infinite M200 plate reader (Tecan Group AG, Männedorf, Switzerland). The measured absorption referred to the hemoglobin concentration.
Next, we incubated human red blood cells (RBCs) with different concentrations of CB-sC18 conjugates at 37 °C for 1 or 24 h, respectively. Since their cell membranes are mainly composed of neutral lipids, RBCs serve as an excellent biological model for the lytic activity of a peptide. […] For sC18, this agreed with the detected low activity when in contact with zwitterionic LUVs. […] The same activity profile was observed when incubating peptide conjugates with RBCs for only one hour (Figure S30), whereas the effects started at concentrations higher than 5 µM. […]

[4] = tested on: HeLa cells; experiment: Transfection with mCherry plasmid; type: cell-based; settings: peptide:plasmid 3:1 (250 ng plasmid), 1 µM peptide, 2 h, inspected 72 h after transfection, fluorescence microscopy
Method: HeLa cells were seeded into 8-well plates (ibidi, Gräfelfing, Germany, 8000 cells per well, respectively) and grown to 30–40% confluency. Peptides and mCherry plasmid were co-incubated for 1 h at 37 °C at a ratio of 3:1 in serum-free medium (mCherry plasmid: 250 ng). Afterwards, the medium was removed, and the solution was added to the cells. Additional serum-free medium was added to ensure a final peptide concentration of 1 µM. Cells were incubated for 2 h with the peptides and peptide/plasmid solution at 37 °C, respectively. As a positive control, Lipofectamine 2000 (Invitrogen, Thermo Scientific, Waltham, MA, USA) was used and as a negative control, cells were treated with plasmid only. Afterwards, a washout was performed, and cells were washed once with 150 µL of serum-free medium. In total, 300 µL of medium with serum were added and cells were grown for 72 h at 37 °C. Ten minutes prior to microscopic analysis, 0.6 µL of Hoechst33342 were added. Then, cells were washed twice with 150 µL of serum-free medium. In total, 300 µL of serum-supplemented medium were added and cells analyzed using a BZ-X800E microscope (Keyence, Osaka, Japan).

[5] = tested on: HeLa cells; experiment: Proliferation assay, co-incubation with Daunorubicin; type: cell-based; settings: 2 h, washout, 72 h growth, resazurin; for Effect on cytotoxicity of Dau (co-incubation): 1 µM peptide with 100 nM or 1 µM Daunorubicin
Method: In total, 3000 HeLa cells per well were seeded onto 96-well plates (Sarstedt, Nümbrecht, Germany). When a confluency of 30–40% was reached, medium was removed and cells were incubated with peptides and Daunorubicin at different concentrations (1 µM peptide concentration and 100 nM or 1 µM Daunorubicin in serum-free medium) for 2 h at 37 °C. Afterwards, a washout was performed, and cells were washed once with 100 µL of serum-free medium. Then, 200 µL of medium with serum were added and cells were grown for 72 h at 37 °C. As a positive control, cells were treated with 70% EtOH for 10 min. Afterwards, cells were covered with 10% (v/v) resazurin (Sigma-Aldrich, Merck group: Darmstadt, Germany) in serum-free medium for 1.5 h at 37 °C. The cell viability of treated cells was determined relative to that of untreated cells by measurement of the resorufin product at 595 nm (λex = 550 nm) on a Tecan infinite M200 plate reader (Tecan Group AG, Männedorf, Switzerland). Viability was calculated from the fluorescence values of treated cells in relation to untreated cells.

[6] = tested on: HeLa cells; experiment: Cell viability assay (resazurin); type: cell-based; settings: 37 °C, serum-free medium, 125 nM–100 µM, relative to untreated cells
Method: In total, 17.000 HeLa cells per well were seeded onto 96-well plates (Sarstedt, Nümbrecht, Germany). After confluency of 80–90% was reached, the growth medium was removed, and cells were incubated with 100 µL of peptide solution of different concentrations (125 nM–100 μM in serum-free medium) for 24 h at 37 °C. For a positive control, cells were treated with 70% EtOH for 10 min. Cells were washed with serum-free medium and incubated with 10% (v/v) resazurin (Sigma-Aldrich, Merck group: Darmstadt, Germany) in serum-free medium for 1.5 h at 37 °C. Cell viability was determined by measurement of the resorufin product at 595 nm (λex = 550 nm) on a Tecan infinite M200 plate reader (Tecan Group AG, Männedorf, Switzerland). Viability was calculated from the fluorescence values of treated cells in relation to untreated cells.

[7] = CF-leakage assay, negatively charged LUVs; settings: 1 µM peptide, 25 °C, 90 min; fluorescence, normalized to Triton x-100; duplicate, n = 2
Method: (§1) Large unilamellar vesicles (LUVs) were prepared by dissolving different lipids in CHCl3, to reach the desired compositions (lipids were purchased from Avanti Polar Lipids, Inc., Alabaster, AL, USA). To remove the solvent, the mixture was placed into a round-bottomed flask on ice and the solvent was evaporated under reduced pressure for 20 min at 40 °C and afterwards under vacuum for another 5 min. The dried lipid film was then hydrated with HKS buffer (25 mM HEPES, 150 mM KCl, pH 7.4, 10% sucrose (w/v)), supplemented with 100 mM 5(6)-carboxyfluorescein (CF), and homogenized for 5 min at 45 °C to form liposomes (final concentration: 8 mM). The resulting multilamellar vesicle dispersion underwent 10 freeze/thawing cycles and was passed 21 times through a mini extruder (0.4 µm polycarbonate treck-etch membrane; Avanti Polar Lipids, Inc., Alabaster, AL, USA). External CF was removed by size exclusion chromatography (PD10 column, GE Healthcare, Chicago, IL, USA). Peptides were added to the LUVs and the CF release was monitored by measuring the increased fluorescence intensity on a plate reader (Biotek, Winooski, VT, USA). […]
(§2) Our results thus far inspired us to investigate how the novel CB-conjugates would perform in a lipid environment. […] Both lipid systems were additionally loaded with CF in order to monitor membrane leakage via fluorescence dye outflow.

[8] = CF-leakage assay, zwitterionic LUVs; settings: 1 µM peptide, 25 °C, 90 min; fluorescence, normalized to Triton x-100; duplicate, n = 2
Method: as §1, §2

[9] = Critical micelle concentration (CMC) determination by UV-VIS; type: physicochemical; settings: peptide in water, 1–200 µM; UV absorbance at 255 nm plotted against logarithm of peptide concentration, intersection point of two lines
Method: Peptide conjugates were dissolved in water and different concentrations (1–200 µM) were prepared. UV-VIS spectra ranging from 200–700 nm were recorded using a 1 cm path length quartz cuvette in a Spectroquant Pharo 300 photometer (Merck, Darmstadt, Germany). The absorbance at 255 nm was plotted against the logarithm of the peptide concentration. The intersection point of two lines was determined as CMC.
Since this effect was obviously dependent on the hydrophobic nature of the conjugates, we were then interested in whether they would also self-assemble and form nanostructures, such as micelles or fibrils. An easy to apply and fast method makes use of changes in spectroscopic properties associated with micelle formation. For this, one measures the UV absorbance at a specific wavelength as a function of the concentration. Because aggregates like micelles and free molecule species contribute to a different extent to the absorbed UV light, an abrupt change of the slope occurs above a certain point. The corresponding concentration is defined as the critical micelle concentration (CMC). We measured the UV-VIS spectra of all CB-sC18 conjugates and observed for all an additional concentration-dependent maximum at 255 nm (Figure 1A,B and Table 2), whereas this maximum was not detected for meta-carborane-1-carboxylic acid (Figure S14) or sC18 alone (Figure S15).
Thus, we hypothesized this maximum as evidence for a possible self-assembly, and by plotting the absorbance at 255 nm against the logarithm of the peptide concentration, we assigned the intersection point as CMC.

% of alpha helix, 50% TFE [1]	% of alpha helix, Phosphate Buffer [1]	R-value, 50% TFE [1]	Cellular uptake into HeLa cells, 30 min [2]	R-value, Phosphate Buffer [1]	CMC [9]	Cellular uptake into HeLa cells, 2 h ([2]; 2 h)	Substance	Hemolytic activity towards RBCs, 24 h [3]	mCherry pDNA transfection (red fluorescent signal) [4]	Effect on cytotoxicity of Dau (co-incubation) [5]	Cytotoxicity towards HeLa cells, 24 h [6]	CF release (leakage) from negatively charged LUVs [7]	CF release (leakage) from zwitterionic LUVs [8]	Effect on daunorubicin activity at 100 nM Dau ([5]; 1 µM peptide with 100 nM Dau)
50.68%	5.02%	0.85	internalized nearly to the same extent				K-GLRKRLRKFRNKIKEK [CB1-sC18, sC18 conjugate bearing one meta-carborane (CB) cluster]	did not exhibit any effect	only a weak red signal	did not alter the cytotoxicity of Dau	lowest cytotoxic effect			
60.49%	5.45%	0.89					KK-GLRKRLRKFRNKIKEK [CB2-sC18, sC18 conjugate bearing two meta-carborane clusters]	able to lyse RBCs						
50.15%	21.09%	0.92	decreased again	0.87	44.37 ± 1.16 µM		CB-KKKK-GLRKRLRKFRNKIKEK [CB5-sC18, sC18 conjugate bearing five meta-carborane clusters]					increased outflow of CF	same leakage profile as CB1-sC18	
							meta-carborane-1-carboxylic acid [reference compound]				nearly no cytotoxicity			
56.30%	21.68%	0.98	highest	0.73	43.45 ± 1.15 µM	internalized the most	KKKK-GLRKRLRKFRNKIKEK [CB4-sC18, sC18 conjugate bearing four meta-carborane clusters]		strong red intracellular signals	did not alter the cytotoxicity of Dau		highest leakage rate	highest leakage rate towards both tested model systems	slightly increased
